These results are taken from patent publication US9709557B2, “Anthraquinone based near IR emitting compounds and uses thereof” (LIFE TECHNOLOGIES CORPORATION, priority 2008, dated 2017).

Structures are written as SMILES.

Data set [1] has as its system Live Jurkat cells. Put plainly: DNA staining of live cells and DNA content cell cycle analysis using flow cytometry (Example 36). It is filed as cell-based, human. The conditions noted are these: for G2/G1 ratio: 30 min. As for the experimental part: Live Jurkat cells are suspended at 5×10^5 cells/ml in each RPMI media with 10% Fetal Bovine Serum (FBS) and Hanks Balanced Salt Solution (HBSS). A compound (e.g., Compound 9 or a salt thereof) is added to each of one mL cell suspensions at concentrations 1 μM, 5 μM, 10 μM, and 20 μM, and then incubated at 37° C. or room temperature for 30 minutes while protected from light. Cells are run through a Becton Dickinson (BD) LSRII Flow Cytometer. Forward Scatter (FS) versus Side Scatter (SS) dual parameter plot is used to gate main cell population. Fluorescence is collected using three lasers: 488 nm excitation laser with 670/14, 720/20 and 787/42 bandpass emission filter, 532 nm excitation laser with 585/42 and 780/60 bandpass emission filters, and 633 nm excitation laser with 695/40, and 787/42 bandpass emission filters. Collection of at least 10,000 events at flow rate of ˜200 events/second. The data is further analyzed using MODFIT LT Flow Cytometry Modeling Software from Verity Software House, Inc. to evaluate the ratio of G2/G1 and the % CV of G1 phase.
DNA content analysis in living cells is expected to produce variable results. Depending on the cell type, the % CV of the mean DNA content of a uniform cell population may vary from between 5%-10%. Although there is no formal consensus regarding the acceptable maximal CV value for the mean DNA content of the G0G1 phase, the % CV of normal diploid cells in a histogram generally is <8%. The CV of a tumor may be higher due to the presence of multiple tumor subpopulations. However, tumor CVs of <8% are recommended for useful S-Phase determinations (Cytometry, Vol. 14 (5), 1993, page 474).
Linearity is the observed ratio between the DNA Diploid G2M and G0G1 positions. The ratio normally is about two, but this ratio may deviate from the ideal value even under normal conditions (see, MODFIT LT User Guide, June 2000).
(In general: In flow cytometry, cells or beads pass a laser one at a time.)

Data set [2] concerns Live Jurkat cells. Put plainly: DNA staining of live cells, 15 minute incubation, MODFIT analysis (Example 47). The conditions noted are these: 1.25, 2.5, 5, 10 μM, 37° C. and room temperature, 15 min. It is filed as cell-based, human. As to the method: Live Jurkat cells are suspended at 5×10^5 cells/ml in RPMI media Compound 9 is added to each of one mL cell suspensions at final concentrations 1.25 μM, 2.5 μM, 5 μM, and 10 μM and then incubated at 37° C. and room temperature for 15 minutes while protected from light. Cells are run through the Becton Dickinson (BD) LSRII Flow Cytometer. Forward Scatter (FS) versus Side Scatter (SS) dual parameter plot is used to gate main cell population. Fluorescence is collected using two lasers: the 488 nm excitation laser with 695/40 bandpass emission filter, and using the 633 nm excitation laser with 695/40 bandpass emission filters, collecting 10,000 events at flow rate of ˜200 events/second. The data is further analyzed using MODFIT LT Flow Cytometry Modeling Software from Verity Software House, Inc. to look at ratio of G2/G1 and the % CV of G1 phase.

For data set [3], the system named is U-2 OS cells (ATCC HTB-96). Put plainly: Imaging of cells stained with near-IR DNA stain (Example 48). It is filed as cell-based. The note with it: 20 μM, live, fixed or simultaneously fixed cells. As to the method:
Live U-2 OS cells (ATCC HTB-96) were treated with Compound 9 under various conditions and imaged with a 10×/0.3 objective on an ArrayScan VTI automated microscope platform (ThermoFisher/Cellomics). […] Such staining patterns have been routinely utilized in auto-focus and cell identification in automated microscopy. Cells were fixed with 3.7% formaldehyde (diluted from Sigma F1635) in the presence of 20 μM Compound 9 for 30 minutes at room temperature. The fixed cells were imaged and show similar prominent nuclear and dim cytosolic labeling (FIG. 4).

The subject of data set [4] is Live Jurkat cells. Put plainly: DNA staining of live cells treated with RNase (Example 37). It is filed as cell-based, human. The note with it: 5 μM and 10 μM, 37° C. or room temperature, 30 min. As to the method:
Live Jurkat cells (human T-lymphocyte) were stained with Compound 9 with and without RNase treatment to assess DNA selectivity of the compound. Live Jurkat cells were suspended at 5×10^5 cells/ml in each RPMI media with 10% FBS. The dye was added to each of one mL cell suspensions at concentrations 5 μM and 10 μM. Duplicate conditions (dye concentration and incubation temperature) were tested. RNase was added to one test and incubated along with the dye. The other test was left untreated (no RNase present). The samples were incubated at 37° C. or room temperature for 30 minutes while protected from light. Cells were run through a Becton Dickinson (BD) LSRII Flow Cytometer, as described in Example 36.

The test system of data set [5] is Live Jurkat cells. Nature of the data set: Evaluation of cell health after DNA staining, ImageStream imaging flow cytometer (Example 39). It is filed as cell-based. The conditions noted are these: 5 μM, 37° C., 30 min. An excerpt:
An ImageStream multispectral imaging flow cytometer is used to evaluate the live, apoptotic and mitotic rate of cycling Jurkat cells labeled with a compound of the invention (e.g., Compound 9 or a salt thereof). The platform produces high resolution brightfield, darkfield, and fluorescence images of cells prepared in suspension. IDEA analysis software I is used to quantify morphometric and photometric parameters for each cell based on the imaged collected. This technology combines the quantitative power of large sample sizes common to flow cytometry with the high information content present in microscopic images.
Live Jurkat cells are suspended at 5×10^5 cells/ml in each RPMI media with 10% FBS. The compound (in 5 mM DMSO) is added at a concentration of 5 μM and then the cells are incubated at 37° C. for 30 minutes while protected from light before acquiring on the ImageStream cytometer using 658 nm excitation and >660 nm emission. Apoptotic, mitotic, and interphase Jurkat cells are distinguished from each other using a combination of scatter, DNA intensity, and morphology-based parameters. Apoptotic cells with high laser scatter properties are gated on the Mean Pixel SSC histogram. Low scatter apoptotic events with low DNA content or textured nuclei are identified on the dye intensity versus bright detail intensity plot. […]

Consider `CN(C)CCNC(=O)CNc1ccc(O)c2c1C(=O)c1c(O)ccc(N)c1C2=O` [Compound 9], for which the G2/G1 ratio amounted to 1.91 with Live Jurkat cells [1] (1 μM, RPMI media, 37° C.); 1.83 in the data set on Live Jurkat cells [1] (5 μM, RPMI media, 37° C.); 1.84 with Live Jurkat cells [1] (10 μM, HBSS buffer, 37° C.); 1.83 in the data set on Live Jurkat cells [1] (10 μM, HBSS buffer, room temperature); 1.82 in the data set on Live Jurkat cells [1] (10 μM, RPMI media, 37° C.); 1.82 in the data set on Live Jurkat cells [1] (10 μM, RPMI media, room temperature). Also, the G2/G1 ratio in the data set on Live Jurkat cells [1] (20 μM, RPMI media, 37° C.) is reported as 1.87. Also, the “% CV of G1-phase” value with Live Jurkat cells [1] (all concentrations (1-20 μM), media and HBSS, 37° C. and room temperature, MODFIT) was under 8%; in the data set with Live Jurkat cells [2], under 8%. In the data set on Live Jurkat cells [1] (all concentrations, MODFIT analysis), the “G2/G1 ratios (linearity)” value is “indicating linearity of staining”. The “DNA staining of live cells” value in the data set with Live Jurkat cells [1] (excited by 488, 532 and 633 nm lasers) is “effective stain for DNA”. Moreover, the “staining pattern” value in data set [3] was “prominent nuclear and relatively dim cytsolic staining”. Further, the “DNA selectivity, staining with and without RNase” value in the data set with Live Jurkat cells [4] is listed as “DNA selective”. Also, the “cells dead following incubation with the dye” value in the data set with Live Jurkat cells [5] is 7.1%. Also, the “mitotic cells as share of the live cell population” value in the data set with Live Jurkat cells [5] is 1.9%.
